# Assays:
# Assay in all cases: microbe, parasite or virus in culture
# Type in all cases: cell-based
# [1] = test system: HIV Selected In Vitro by the Compound of Example 2B
# [2] = test system: Ritonavir-Resistant Mutant HIV Clones
# [3] = test system: Ritonavir-Resistant HIV from Patients
# [4] = Human immunodeficiency virus 1, NL43, Virus NL4-3
# [5] = Human immunodeficiency virus 1, Virus P7
# [6] = Human immunodeficiency virus 1, Virus P11
# [7] = Human immunodeficiency virus 1, Virus P14
# [8] = Human immunodeficiency virus 1, Virus P17
compound,measurement,setting,value
CC(C)c1nc(CN(C)C(=O)N[C@H](C(=O)N[C@@H](Cc2ccccc2)C[C@H](O)[C@H](Cc2ccccc2)NC(=O)OCc2cncs2)C(C)C)cs1 [Ritonavir],EC50,[1]; [4],98 nM
same,EC50,[1]; [5],221 nM
same,EC50,[1]; [6],478 nM
same,EC50,[1]; [7],1740 nM
same,EC50,[1]; [8],2090 nM
same,cross-resistance (fold),"[1]; passaged virus P14, P17",18-20 fold
same,EC50,"[2]; Human immunodeficiency virus 1, HXB2, Virus Clone Wild Type (HXB2), 0% Human Serum",64 nM
same,EC50,"[2]; Human immunodeficiency virus 1, HXB2, Virus Clone Wild Type (HXB2), 50% Human Serum",1050 nM
same,EC50,"[2]; Human immunodeficiency virus 1, Virus Clone E35D, M36I, I54V, A71V, V82T, 0% Human Serum",1170 nM
same,EC50,"[2]; Human immunodeficiency virus 1, Virus Clone E35D, M36I, I54V, A71V, V82T, 50% Human Serum",21900 nM
same,EC50,"[2]; Human immunodeficiency virus 1, Virus Clone G48V, 0% Human Serum",111 nM
same,EC50,"[2]; Human immunodeficiency virus 1, Virus Clone G48V, 50% Human Serum",1710 nM
same,EC50,"[2]; Human immunodeficiency virus 1, Virus Clone I54V, V82T, 0% Human Serum",613 nM
same,EC50,"[2]; Human immunodeficiency virus 1, Virus Clone I54V, V82T, 50% Human Serum",16700 nM
same,EC50,"[2]; Human immunodeficiency virus 1, Virus Clone I84V, 0% Human Serum",141 nM
same,EC50,"[2]; Human immunodeficiency virus 1, Virus Clone I84V, 50% Human Serum",2720 nM
same,EC50,"[2]; Human immunodeficiency virus 1, Virus Clone K20R, E35D, M36I, I54V, A71V, V82T, 0% Human Serum",1420 nM
same,EC50,"[2]; Human immunodeficiency virus 1, Virus Clone K20R, E35D, M36I, I54V, A71V, V82T, 50% Human Serum",16000 nM
same,EC50,"[2]; Human immunodeficiency virus 1, Virus Clone L90M, 0% Human Serum",93 nM
same,EC50,"[2]; Human immunodeficiency virus 1, Virus Clone L90M, 50% Human Serum",2280 nM
same,EC50,"[2]; Human immunodeficiency virus 1, Virus Clone V82A, 0% Human Serum",144 nM
same,EC50,"[2]; Human immunodeficiency virus 1, Virus Clone V82A, 50% Human Serum",4080 nM
same,EC50,"[2]; Human immunodeficiency virus 1, Virus Clone V82F, 0% Human Serum",146 nM
same,EC50,"[2]; Human immunodeficiency virus 1, Virus Clone V82F, 50% Human Serum",3600 nM
same,EC50,"[2]; Human immunodeficiency virus 1, Virus Clone V82S, 0% Human Serum",304 nM
same,EC50,"[2]; Human immunodeficiency virus 1, Virus Clone V82S, 50% Human Serum",9220 nM
same,EC50,"[2]; Human immunodeficiency virus 1, Virus Clone V82T, 0% Human Serum",146 nM
same,EC50,"[2]; Human immunodeficiency virus 1, Virus Clone V82T, 50% Human Serum",5640 nM
same,EC50,"[2]; Human immunodeficiency virus 1, Virus Clone Wild Type (pNL4-3), 0% Human Serum",71 nM
same,EC50,"[2]; Human immunodeficiency virus 1, Virus Clone Wild Type (pNL4-3), 50% Human Serum",1400 nM
same,EC50,"[3]; Human immunodeficiency virus 1, 24 h, Patient No. 313, Day 1, baseline",12 nM
same,EC50,"[3]; Human immunodeficiency virus 1, 24 h, Patient No. 410, Day 1, baseline",29 nM
same,EC50,"[3]; Human immunodeficiency virus 1, 504 h, Patient No. 104, Day 21, V82A",46 nM
same,EC50,"[3]; Human immunodeficiency virus 1, 672 h, Patient No. 104, Day 28, V82T",67 nM
same,EC50,"[3]; Human immunodeficiency virus 1, Patient No. 104, Day -1, baseline",21 nM
same,EC50,"[3]; Human immunodeficiency virus 1, Patient No. 129, Day 84, M36I, I54V, A71V, V82T",203 nM
same,EC50,"[3]; Human immunodeficiency virus 1, Patient No. 129, Day 140, K20K/R, M36M/I, I54V, A71A/V, V82T",677 nM
same,EC50,"[3]; Human immunodeficiency virus 1, Patient No. 129, Day -1, baseline",24 nM
same,EC50,"[3]; Human immunodeficiency virus 1, Patient No. 131, Day 88, M36I, 154V>I, V82A",163 nM
same,EC50,"[3]; Human immunodeficiency virus 1, Patient No. 131, Day 200, K20K/R, M36I, I54I/V, V82A",731 nM
same,EC50,"[3]; Human immunodeficiency virus 1, Patient No. 131, Day -28, baseline",18 nM
same,EC50,"[3]; Human immunodeficiency virus 1, Patient No. 224, Day 110, L33L/F, V82T/S",79 nM
same,EC50,"[3]; Human immunodeficiency virus 1, Patient No. 224, Day 190, K20K/N/R, L33L/F, M36M/I, I54V/M, V82S",496 nM
same,EC50,"[3]; Human immunodeficiency virus 1, Patient No. 224, Day -6, baseline",29 nM
same,EC50,"[3]; Human immunodeficiency virus 1, Patient No. 235, Day 167, I54I/V, A71V, V82A. L90L/M",66 nM
same,EC50,"[3]; Human immunodeficiency virus 1, Patient No. 235, Day -1, baseline",10 nM
same,EC50,"[3]; Human immunodeficiency virus 1, Patient No. 313, Day 57, M36M/I, V82F",64 nM
same,EC50,"[3]; Human immunodeficiency virus 1, Patient No. 313, Day 85, M36M/I, I54I/V, V82S/F/A/T",274 nM
same,EC50,"[3]; Human immunodeficiency virus 1, Patient No. 410, Day 57, M36M/I, I54I/V, V82A",341 nM
same,EC50,"[3]; Human immunodeficiency virus 1, Patient No. 410, Day 85, M36I, I54V, V82A",545 nM
"CC(C)(C)NC(=O)[C@@H]1CN(Cc2cccnc2)CCN1C[C@@H](O)C[C@@H](Cc1ccccc1)C(=O)N[C@H]1c2ccccc2C[C@H]1O [Indinavir, N-(2(R)-hydroxy-1 (S)-indanyl)-2(R)-phenylmethyl-4(S)-hydroxy-5-(1-(4-(3-pyridylmethyl)-2(S)-N'-(t-butylcarboxamido)-piperazinyl))-pentaneamide]",EC50,[1]; [4],67 nM
same,EC50,[1]; [5],113 nM
same,EC50,[1]; [6],153 nM
same,EC50,[1]; [7],425 nM
same,EC50,[1]; [8],1360 nM
same,resistance (fold),[1]; P17 virus,20 fold
"CC(C)(C)NC(=O)[C@@H]1C[C@@H]2CCCC[C@@H]2CN1C[C@@H](O)[C@H](Cc1ccccc1)NC(=O)[C@H](CC(N)=O)NC(=O)c1ccc2ccccc2n1 [Saquinavir, N-tert-butyl-decahydro-2-[2(R)-hydroxy-4-phenyl-3(S)-[[N-(2-quinolylcarbonyl)-L-asparaginyl]amino]butyl]-(4aS,8aS)-isoquinoline-3(S)-carboxamide]",EC50,[1]; [4],20 nM
same,EC50,[1]; [5],33 nM
same,EC50,[1]; [6],58 nM
same,EC50,[1]; [7],48 nM
same,EC50,[1]; [8],82 nM
same,fold change in EC50,"[1]; all of the passaged virus (P7, P11, P14, P17)",≤ 4 fold

# From EP1295874A2, “Retroviral protease inhibiting compounds” (Abbott Laboratories, priority 1995, dated 1997)
